Among the data in ChEMBL document CHEMBL1138331, “Potent antimalarial activity of 2-aminopyridinium salts, amidines, and guanidines” (J Med Chem, 2007) are IC50 and pKa values, retold here.

The subject of one data set is Plasmodium falciparum. The data set can be described thus: microbe, parasite or virus in culture. The settings on record: Nigerian, 48 h.

The structures appear in SMILES notation.

Description for Plasmodium falciparum: Antimalarial activity against Plasmodium falciparum Nigerian in human erythrocytes after 48 hrs
Description for physchem: Dissociation constant, pKa by potentiometric titration

What is called IC50 is the concentration at which inhibition is half-maximal. A higher IC50 goes with weaker potency. Regarding `N=c1sc2ccccc2n1CCCCCCCCCCCCn1c(=N)sc2ccccc21`, the IC50 with Plasmodium falciparum stood at 4000 nM.
In general, pKa refers to the pH at which an ionisable group is half protonated. For `c1ccc2[nH]c(CCCCCCCCCCCCc3nc4ccccc4[nH]3)nc2c1`, the pKa in “physchem” was 9. This compound also returned an IC50 in the data set on Plasmodium falciparum of 1800 nM.
In the same order, the values of `N=C(CCCCCCCCCCCCC(=N)N1CCCCC1)N1CCCCC1` are 12.6 and 4.9 nM.
For `Cn1c(=N)n(CCCCCCCCCCCCn2c(=N)n(C)c3ccccc32)c2ccccc21` the same measures were 11.9 and 65 nM.
Regarding `CCN(CC)CCOCCCCCCCCCCCCOCCN(CC)CC`, the IC50 in the data set on Plasmodium falciparum was found to be 120 nM.
Same read-out and setting: next, `FC(F)(F)c1ccc(OCC2CCCN2CCCCCCCCCCCCCCCCN2CCCC2COc2ccc(C(F)(F)F)cc2)cc1` (stereo unspecified): 5400 nM.
As for `CCOC(=N)CCCCCCCCCCCCC(=N)OCC`, the pKa in “physchem” was determined as 7.6. Further, half-maximal inhibition with Plasmodium falciparum (IC50) required 52000 nM.
For the compound `N=c1sc(-c2cccs2)nn1CCCCCCCCCCCCn1nc(-c2cccs2)sc1=N`, the pKa in the data set “physchem” amounted to 7.8. Besides, 8150 nM corresponded to half-maximal inhibition in the data set with Plasmodium falciparum (IC50).
In the data set on Plasmodium falciparum, `C(CCCCCCN/C(=N\C1CCCCC1)NC1CCCCC1)CCCCCN/C(=N\C1CCCCC1)NC1CCCCC1` gave an IC50 of 21 nM.
Still for that read-out and setting: next, `C(CCCCCCNC1=NCCCCC1)CCCCCNC1=NCCCCC1`: 2.2 nM.
With `N=C(N)CCCCCCCCCCCCCCCCC(=N)N`, the pKa in “physchem” was found to be 13.2. In the data set with Plasmodium falciparum, this compound yielded an IC50 of 100 nM.
In turn, `CCN(CC)CCCCCCCCCCCCN(CC)CC` displayed an IC50 in the data set with Plasmodium falciparum of 540 nM.
On the same count and under the same terms, next, `CCN(CC)CCCCCCCCCCCCCCCCN(CC)CC`: 110 nM.
As for `C(CCCCCCNC1=NCCCC1)CCCCCNC1=NCCCC1`, in the data set “physchem”, the pKa came out at 12.7. This compound also gave an IC50 in the data set on Plasmodium falciparum of 3 nM.
For `Cc1ccc[n+](CCCCCCCCCCCC[n+]2cccc(C)c2N)c1N` the same measures were 13.3 and 1.8 nM.
With `N=c1c2ccccc2ccn1CCCCCCCCCCCCn1ccc2ccccc2c1=N`, the pKa in the data set “physchem” stood at 11.1. The IC50 in the data set on Plasmodium falciparum came out at 260 nM.
For `CN(C)/C(=N\C#N)NCCCCCCCCCCCCN/C(=N\C#N)N(C)C`, inhibition in the data set on Plasmodium falciparum was half-maximal at 8500 nM (IC50). This lies in the single-digit micromolar range.
`C(CCCCCCC1=NCCN1)CCCCCC1=NCCN1` gave a pKa in “physchem” of 13. The compound also had an IC50 in the data set with Plasmodium falciparum of 2 nM.
`Cc1nccn1CCCCCCCCCCCCn1ccnc1C` returned an IC50 in the data set on Plasmodium falciparum of 270 nM.
In the data set “physchem”, `C(CCCCCCNC1=NCCN1)CCCCCNC1=NCCN1` gave a pKa of 13.5. The compound further showed an IC50 in the data set with Plasmodium falciparum of 1.7 nM.
In the same order, the values of `Nc1cc(-c2ccccc2)cc[n+]1CCCc1ccc(CCC[n+]2ccc(-c3ccccc3)cc2N)cc1` are 12.6 and 4.5 nM.
In the same order, the values of `C(CCCCCCC1=NCCCN1)CCCCCC1=NCCCN1` are 13.1 and 2.3 nM.
In the same order, the values of `Nc1ccc(Cl)c[n+]1CCCCCCCCCCCC[n+]1cc(Cl)ccc1N` are 12.8 and 1.4 nM.
In turn, `c1cn(CCCCCCCCCCCCn2ccnc2)cn1` came in with an IC50 with Plasmodium falciparum of 2000 nM.
As to `N=C(N)CCCCCCCCCCCCC(=N)N`, the pKa in “physchem” was 13.6. In the data set on Plasmodium falciparum, this compound had an IC50 of 0.3 nM.
In the same order, the values of `N=c1cc2ccc3ccccc3c2nn1CCCCCCCCCCCCn1nc2c(ccc3ccccc32)cc1=N` are 11.7 and 50 nM.
In the case of `CCCCCCCCCCCC[n+]1ccc(C)cc1N`, in the data set with Plasmodium falciparum, the IC50 worked out at 1550 nM.
The same measure, in the same setting: next, `OCC1CCCN1CCCCCCCCCCCCCCCCN1CCCC1CO` (stereo unspecified): 160 nM.
As to `C(CCCCCCNC1=NCCC1)CCCCCNC1=NCCC1`, the pKa in “physchem” is 12.1. For the same compound, the IC50 in the data set on Plasmodium falciparum worked out at 3.8 nM.
Take `Cc1cc[n+](CCCc2ccc(CCC[n+]3ccc(C)cc3N)cc2)c(N)c1`: the pKa in the data set “physchem” amounted to 12.6. Besides, 2.9 nM corresponded to half-maximal inhibition with Plasmodium falciparum (IC50).
In “physchem”, `N=c1n(CCCCCCCCCCCCn2c(=N)n(Cc3ccccc3)c3ccccc32)c2ccccc2n1Cc1ccccc1` gave a pKa of 9.4. For the same compound, half-maximal inhibition with Plasmodium falciparum (IC50) was put at 450 nM.
Regarding `CC1(C)CN=C(NCCCCCCCCCCCCNC2=NCCCN2)NC1`, in the data set on Plasmodium falciparum, 0.6 nM corresponded to half-maximal inhibition (IC50).
As to `Cc1cc[n+](CCCCCCCCCCCC[n+]2ccc(C)cc2N)c(N)c1`, the pKa in “physchem” came out at 13.5. The compound further had an IC50 in the data set with Plasmodium falciparum of 0.5 nM.
For `CC(=N)NCCCCCCCCCCCCNC(C)=N` the same measures were 12.6 and 2 nM.
`Nc1ccc(-c2ccccc2)c[n+]1CCCc1ccc(CCC[n+]2cc(-c3ccccc3)ccc2N)cc1` displayed a pKa in the data set “physchem” of 12.8. In the data set on Plasmodium falciparum, this compound showed an IC50 of 13 nM.
For `Cc1ccc(N)[n+](CCCCCCCCCCCC[n+]2cc(C)ccc2N)c1` the same measures were 13 and 0.5 nM.
For `N=c1ncccn1CCCCCCCCCCCCn1cccnc1=N` the same measures were 11.7 and 145 nM.
In the same order, the values of `N=C(CCCCCCCCCCCCC(=N)N1CCCC1)N1CCCC1` are 13.2 and 0.8 nM.
With `c1c[nH]c(CCCCCCCCCCCCc2ncc[nH]2)n1`, the pKa in “physchem” worked out at 9.8. The compound further displayed an IC50 in the data set on Plasmodium falciparum of 1650 nM.
In turn, `C(CCCCCCC1=NC2CCCCC2N1)CCCCCC1=NC2CCCCC2N1` (stereo unspecified) showed an IC50 in the data set with Plasmodium falciparum of 3 nM.
With `C(CCCCCCCCN1CCCC1)CCCCCCCN1CCCC1`, in the data set with Plasmodium falciparum, the half-inhibitory concentration (IC50) was determined as 110 nM.
On to `N=c1sc(-c2ccccc2)nn1CCCCCCCCCCCCn1nc(-c2ccccc2)sc1=N`, for which the pKa in the data set “physchem” turned out to be 8. Moreover, in the data set on Plasmodium falciparum, inhibition was half-maximal at 760 nM (IC50).
In the data set with Plasmodium falciparum, `N=C(N)NCCCCCCCCCCCCNC(=N)N` had an IC50 of 0.35 nM.
In the data set “physchem”, `N=c1ncc(-c2ccccc2)cn1CCCCCCCCCCCCn1cc(-c2ccccc2)cnc1=N` registered a pKa of 11.3. The compound also came in with an IC50 in the data set with Plasmodium falciparum of 12.3 nM.
In the same order, the values of `CN(C)C(=N)NCCCCCCCCCCCCNC(=N)N(C)C` are 14.1 and 1.6 nM.
In turn, `C[N+]1(CCCCCCCCCCCCCCCC[N+]2(C)CCCC2CO)CCCC1CO` (stereo unspecified) gave an IC50 with Plasmodium falciparum of 1.5 nM.
In the data set with Plasmodium falciparum, `C(CCCCCCNC1=NCCCN1)CCCCCNC1=NCCCN1` came in with an IC50 of 0.5 nM.
In the data set with Plasmodium falciparum, `C[N+]1(CCCCCCCCCCCCCCCC[N+]2(C)CCCC2COc2ccc(C(F)(F)F)cc2)CCCC1COc1ccc(C(F)(F)F)cc1` (stereo unspecified) came in with an IC50 of 29 nM.
For `CN1CCN=C1CCCCCCCCCCCCC1=NCCN1C`, the pKa in “physchem” stood at 11. In the data set with Plasmodium falciparum, this compound returned an IC50 of 43 nM.
On to `CC1CN=C(CCCCCCCCCCCCC2=NCC(C)N2)N1` (stereo unspecified), for which the IC50 in the data set with Plasmodium falciparum is 1 nM. This counts as single-digit nanomolar.
On the same count and under the same terms, then `CC[N+](CC)(CC)CCOCCCCCCCCCCCCOCC[N+](CC)(CC)CC`, with 3.3 nM.
Compound `Cc1cc[n+](CCCCCCCCCCCCCCCC[n+]2ccc(C)cc2N)c(N)c1` yielded a pKa in the data set “physchem” of 13.6. This compound also registered an IC50 with Plasmodium falciparum of 3.8 nM.
In the same order, the values of `Cc1ccc(-c2nn(CCCCCCCCCCCCn3nc(-c4ccc(C)cc4)sc3=N)c(=N)s2)cc1` are 8.1 and 5600 nM.
For `CN(C)C(=N)CCCCCCCCCCCCC(=N)N(C)C` the same measures were 12.8 and 6.3 nM.
On to `CC1(C)CN=C(CCCCCCCCCCCCC2=NCC(C)(C)N2)N1`, for which it took 1 nM to reach half-maximal inhibition with Plasmodium falciparum (IC50).
On the same count and under the same terms, next, `N=C1CCCN1CCCCCCCCCCCCN1CCCC1=N`: 4 nM; `Cc1cc[n+](CCCCCCCC[n+]2ccc(C)cc2N)c(N)c1`: 7.2 nM.
Regarding `N=c1sc(-c2cccc(Cl)c2)nn1CCCCCCCCCCCCn1nc(-c2cccc(Cl)c2)sc1=N`, the pKa in “physchem” is 7.7. For the same compound, in the data set with Plasmodium falciparum, the IC50 worked out at 18500 nM.
In the same order, the values of `N=c1sccn1CCCCCCCCCCCCn1ccsc1=N` are 10.1 and 800 nM.
For `Nc1cccc[n+]1CCCCCCCCCCCC[n+]1ccccc1N` the same measures were 13.5 and 2.3 nM.
